Assays:
[1] = Cytotoxicity against human TK10 cells assessed as cell growth inhibition after 48 hrs by SRB assay; format: functional; conditions: TK-10, 48 h; for CC50: read-out: LC50 (the source's name)
[2] = Cytotoxicity against human UACC62 cells assessed as cell growth inhibition after 48 hrs by SRB assay; format: functional; conditions: UACC-62, 48 h
[3] = Cytotoxicity against human MCF7 cells assessed as cell growth inhibition after 48 hrs by SRB assay; format: functional; conditions: MCF7, 48 h; for CC50: read-out: LC50 (the source's name)
[4] = molecular target: T1, Arachidonate 5-lipoxygenase (Sus scrofa, UniProt K7GQZ4); test: Inhibition of 5-lipoxygenase in pig leukocytes using arachidonic acid as substrate; format: cell-based
T1 sequence (K7GQZ4 whole entry): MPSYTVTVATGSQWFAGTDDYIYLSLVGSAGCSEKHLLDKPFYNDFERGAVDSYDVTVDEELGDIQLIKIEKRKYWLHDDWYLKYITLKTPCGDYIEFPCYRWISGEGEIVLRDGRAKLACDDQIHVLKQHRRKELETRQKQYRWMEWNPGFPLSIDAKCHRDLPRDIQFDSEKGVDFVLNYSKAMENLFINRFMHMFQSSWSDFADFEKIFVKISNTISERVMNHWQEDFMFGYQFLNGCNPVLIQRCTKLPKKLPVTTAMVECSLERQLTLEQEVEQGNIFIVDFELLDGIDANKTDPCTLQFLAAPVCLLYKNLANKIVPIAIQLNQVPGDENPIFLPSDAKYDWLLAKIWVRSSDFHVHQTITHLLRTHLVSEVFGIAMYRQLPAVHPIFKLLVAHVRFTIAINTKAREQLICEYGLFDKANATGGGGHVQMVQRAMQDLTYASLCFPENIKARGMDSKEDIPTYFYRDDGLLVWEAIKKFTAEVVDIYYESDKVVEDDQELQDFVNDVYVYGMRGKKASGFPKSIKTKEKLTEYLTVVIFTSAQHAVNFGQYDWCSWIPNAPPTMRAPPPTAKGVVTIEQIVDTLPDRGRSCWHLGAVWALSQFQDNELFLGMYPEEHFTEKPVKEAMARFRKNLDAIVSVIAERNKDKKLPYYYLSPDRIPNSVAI

[5] = molecular target: T2, Arachidonate 5-lipoxygenase (Sus scrofa) (UniProt K7GQZ4); test: Potency index, ratio of coumestrol IC50 to compound IC50 for 5-lipoxygenase in pig leukocytes; format: cell-based
T2 sequence (whole entry): T1 sequence (K7GQZ4 whole entry)

[6] = test system: UACC-62; test: Potency index, ratio of etoposide TGI to compound TGI for human UACC62 cells; format: functional

Structure (SMILES)	GI50 [1]	TGI [1]	CC50 [1]	GI50 [2]	LC50 (concentration giving 50% net cell kill) [2]	TGI [2]	GI50 [3]	TGI [3]	CC50 [3]	IC50 [4]	Ratio IC50 [5]	Ratio [6]
Cc1c(O)c(O)cc2c1oc1c3cc(Cl)ccc3oc(=O)c21	58.1 µM	> 100 µM	> 100 µM	39.7 µM	> 100 µM	73.6 µM	63.1 µM	> 100 µM	> 100 µM			
COc1cc([C@@H]2c3cc4c(cc3[C@@H](O[C@@H]3O[C@@H]5CO[C@@H](C)O[C@H]5[C@H](O)[C@H]3O)[C@H]3COC(=O)[C@H]23)OCO4)cc(OC)c1O [ETOPOSIDE]			> 100 µM	0.89 µM			0.56 µM	> 100 µM	> 100 µM			
COc1cccc(O)c1O [3-METHOXYCATECHOL]	51.6 µM	97 µM	> 100 µM	23.6 µM		50.3 µM	27.6 µM	60.7 µM	93.8 µM			
Oc1ccccc1O [CATECHOL]	68 µM	> 100 µM	> 100 µM	45 µM		> 100 µM	52.4 µM	> 100 µM	> 100 µM			
COc1c(O)c(O)cc2c1oc1c3cc(C)c(C)cc3oc(=O)c21	26.8 µM	66.4 µM	> 100 µM	18.1 µM	75.3 µM	46.7 µM	29.5 µM	95.4 µM	> 100 µM			
COc1cc(O)c2c(c1)oc(=O)c1c3cc(O)c(O)cc3oc21 [WEDELOLACTONE]										2.5 µM	40	
COc1c(O)c(O)cc2c1oc1c3ccccc3oc(=O)c21	> 100 µM	> 100 µM	> 100 µM	67.6 µM	> 100 µM	> 100 µM	87.3 µM	> 100 µM	> 100 µM			
Cc1cc2oc(=O)c3c4cc(O)c(O)c(F)c4oc3c2cc1C	> 100 µM	> 100 µM	> 100 µM	91.8 µM	> 100 µM	> 100 µM	77.7 µM	> 100 µM	> 100 µM			
O=c1oc2ccc(Cl)cc2c2oc3cc(O)c(O)cc3c12	53.4 µM	> 100 µM	> 100 µM	36.3 µM	> 100 µM	68.6 µM	47.5 µM	89.8 µM	> 100 µM			
Cc1ccc2oc(=O)cc(O)c2c1	> 100 µM	> 100 µM	> 100 µM	84.7 µM		> 100 µM	84.4 µM	> 100 µM	> 100 µM			
Cc1cc2oc(=O)c3c4cc(O)c(O)c(C)c4oc3c2cc1C	> 100 µM	> 100 µM	> 100 µM	67.6 µM	> 100 µM	> 100 µM	87.3 µM	> 100 µM	> 100 µM			
Cc1ccc2oc(=O)c3c4cc(O)c(O)c(C)c4oc3c2c1	48.8 µM	> 100 µM	> 100 µM	5.35 µM	89.9 µM	9.82 µM	7.96 µM	78.2 µM	> 100 µM			5
Cc1ccc2oc(=O)c3c4cc(O)c(O)cc4oc3c2c1	52 µM	> 100 µM	> 100 µM	11.2 µM	90.7 µM	50.9 µM	54.7 µM	> 100 µM	> 100 µM			
O=c1oc2ccccc2c2oc3cc(O)c(O)cc3c12	28.7 µM	88.4 µM	> 100 µM	33.3 µM	90.6 µM	61.9 µM	39.4 µM	77.3 µM	> 100 µM			
O=c1cc(O)c2cc(Cl)ccc2o1	> 100 µM	> 100 µM	> 100 µM	88.7 µM	> 100 µM	> 100 µM	83.3 µM	> 100 µM	> 100 µM			
Cc1cccc(O)c1O	38.1 µM	75.8 µM	> 100 µM	15.2 µM		46.2 µM	27.3 µM	64.3 µM	> 100 µM			
Cc1c(O)c(O)cc2c1oc1c3ccccc3oc(=O)c21	> 100 µM	> 100 µM	> 100 µM	55.6 µM	> 100 µM	> 100 µM	54.9 µM	> 100 µM	> 100 µM			
O=c1oc2ccc(Cl)cc2c2oc3c(F)c(O)c(O)cc3c12	> 100 µM	> 100 µM	> 100 µM	83.7 µM	> 100 µM	> 100 µM	70.3 µM	> 100 µM	> 100 µM			
O=c1cc(O)c2ccccc2o1 [4-HYDROXYCOUMARINS]	> 100 µM	> 100 µM	> 100 µM	83.6 µM		> 100 µM	95.3 µM	> 100 µM	> 100 µM			
Oc1cccc(F)c1O	84.7 µM	> 100 µM	> 100 µM	35.2 µM		78.4 µM	57.6 µM	> 100 µM	> 100 µM			
Cc1cc2oc(=O)cc(O)c2cc1C	> 100 µM	> 100 µM	> 100 µM	80.5 µM	> 100 µM	> 100 µM	82.3 µM	> 100 µM	> 100 µM			
COc1c(O)c(O)cc2c1oc1c3cc(C)ccc3oc(=O)c21	88.6 µM	> 100 µM	> 100 µM	49.9 µM	> 100 µM	> 100 µM	65.8 µM	> 100 µM	> 100 µM			
O=c1oc2ccccc2c2oc3c(F)c(O)c(O)cc3c12	> 100 µM	> 100 µM	> 100 µM	67.6 µM	> 100 µM	> 100 µM	53.1 µM	> 100 µM	> 100 µM			
Cc1cc2oc(=O)c3c4cc(O)c(O)cc4oc3c2cc1C	53.3 µM	> 100 µM	> 100 µM	38.3 µM	> 100 µM	80.1 µM	46 µM	86.3 µM	> 100 µM			

Reference: ChEMBL document CHEMBL3872281, “A one-pot laccase-catalysed synthesis of coumestan derivatives and their anticancer activity” (Bioorg Med Chem, 2017)
